# Laboratory results from patent US20030005484A1, “Microbiocidal and pesticidal aromatic aldehydes” (ProGuard, Inc., priority 1994, published 2003).
# “And” between values parts separate entries of the source, which are not always exact repeats. Identical values can stand only once.
# Legend:
# [1] = test system: powdery mildew; assay: powdery mildew on roses, disease rating / MPDC after foliar spray; assay type: in vivo, Sphaerotheca pannosa; details: for Powdery Mildew, Post (rating): ~100 ml spray; for Mean % Disease Control, rose powdery mildew: single 100 ml foliar spray
# Experimental: Each formulation is evaluated for its effect on specific pests and/or plant host using any of the compounds of formula (1) as well as other components of the formulation such as Tween 80 and/or sodium bicarbonate, with the combination and effective amount of each component adapted for a particular application to minimize toxicity while maintaining or increasing the antipathogenic effect of the formulation. The effective amount of each component may be determined by systematically varying the amount of that component in a test formulation, treating a plant of interest with the test formulation, and monitoring the level of pest infestation compared to an untreated control plant. An effective amount of a test component is identified as the amount that controls the growth of the pathogen on the plant host, thus reducing the disease rating of the plant. The mean percentage disease […] (MPDC) can be calculated for each particular application. MPDC is defined by the formula: [formula] Eight cultivars of rose were tested to investigate the effect of a cinnamic aldehyde/NaHCO3 formulation on rust and spores. The cultivars used included Moss unnamed (Moss), […], Rosette Delize (Hybrid Tea), Rosa Rugosa Rubra (Rugosa), Abel Morrison (Hybrid perpetual), John Laing, Betty Prior, and Rose de Roi. […] The Hybrid Tea and Hybrid perpetual were rated 3 and the Rugosa was rated 1. […] Control plants received no treatment. […] Moreover, the treatment appeared to have induced systemic resistance. […] Plants were an average of 0.86 m apart. […] Controls were untreated plants. […] Weekly reviews were made of the various plants. […] of infected rose in dedicated experimental rose gardens were used. Four Mrs. John Laing (Hybrid perpetual) and two Marchionese of Londonderry (Hybrid perpetual) rose plants were treated with one of two formulations of coniferyl aldehyde. […] The first two Mrs. […] Mrs. […] Both Marchionese of Londonderry plants (P5 and P6) were rated 5 for powdery mildew and rust after Paulus and Nelson (supra). Two treatment formulae were used for this trial. […] Control plants were sprayed with water alone. The change in the rating from pre-treatment to post-treatment was calculated as the mean percentage of disease control (MPDC) as described herein. A three treatment experiment with cinnamic aldehyde formula, coniferyl aldehyde formula and combined cinnamic and coniferyl aldehyde formula was carried out on field grown roses known to be susceptible to powdery mildew. The plants were blocked by variety before fungicide treatments and were randomized as to the plants. Two varieties were used in each of the three experiments described below. […] In experiment 3 Comte de Chambord (Portland) and Madame Pierre Oger (Bourbon) were used. In Experiment 1, the effect of cinnamic aldehyde alone and in combination with Tween 80 and/or NaHCO3 component was evaluated in experiment 2 the effect of coniferyl aldehyde alone and in combination with Tween 80 and/or NaHCO3 was evaluated and in experiment 3 a combination of cinnamic aldehyde and coniferyl aldehyde with Tween 80 and/or NaHCo3 was evaluated. […] See Table 3 for the treatment protocol; formula 1 was used for these experiments. […] Plants were evaluated using the Paulus/Nelson scale just prior to and four days after treatment. […] Moreover, cinnamic aldehyde, coniferyl aldehyde, Tween 80 and NaHCO3 are used in the food industry and there is likely to be little toxicological risk to the consumer or handler from any horticultural or food crop sprayed in this way. Similarly, as these chemicals leave no toxic residue, there is little chance of any detrimental effect on the wider environment, and their use is likely to be compatible with current biological control methods such as beneficial insects and/or microorganisms.
# [2] = test system: grape phylloxera eggs; assay: whole plant or invertebrate
# Experimental: Mixed age groups of 60 grape phylloxera eggs were established on filter paper (Whatman #1, 5.5 cm circles) in 50×9 mm sealed plastic petri dishes treated with 100 μl of solution. A selected concentration of a test formulation of 400 μl was added to the filter disk and the dish closed with the petri dish cover and placed in a plastic container box. After 6 hours, the box was placed in an environmental chamber at 24° C. in the dark. The eggs were placed in groups of 10. After one week, the percentage of hatch is determined. In an initial test, doses from 0.1 to 25,000 ppm cinnamic aldehyde in 6% NaHCO3 and 2% Tween 80 were evaluated with a single group of eggs at each dosage. Three replicates of the experiment were performed. […] LD50 and LD95 were determined by probit analysis.
# Grape phylloxera eggs were treated with cinnamaldehyde (CNMA) in a 6% NaHCO3, 2% Tween-80 formulation in a laboratory bioassay. Mortality of the eggs was indicated by failure of the egg shell to split. […] Leaves of one-year-old greenhouse Vitis vinifera cultivar Merlot vines heavily infested with grape phylloxera were sprayed to run-off with a CNMA treatment using the same formulation. […] Roots taken from plants 1, 2 and 5 weeks after CNMA or other treatments were placed in Petri dish bioassays and infested with untreated phylloxera eggs.
# Eggs of various age classes were placed on Whatman #1 filter paper moistened with enough treatment solution to form a meniscus about halfway up the sides of the eggs. The pieces of filter paper with eggs were maintained in sealed plastic Petri dishes at […] until they were 7 days old and then hatched individuals were counted. Hatch was considered successful if the […]
# [3] = test system: rust; assay: rust (and spores) on roses, disease rating / MPDC after foliar spray; assay type: in vivo, Phragmidrium mucronatrum
# Experimental: Each formulation is evaluated for its effect on specific pests and/or plant host using any of the compounds of formula (1) as well as other components of the formulation such as Tween 80 and/or sodium bicarbonate, with the combination and effective amount of each component adapted for a particular application to minimize toxicity while maintaining or increasing the antipathogenic effect of the formulation. The effective amount of each component may be determined by systematically varying the amount of that component in a test formulation, treating a plant of interest with the test formulation, and monitoring the level of pest infestation compared to an untreated control plant. An effective amount of a test component is identified as the amount that controls the growth of the pathogen on the plant host, thus reducing the disease rating of the plant. The mean percentage disease […] (MPDC) can be calculated for each particular application. MPDC is defined by the formula: [formula] Eight cultivars of rose were tested to investigate the effect of a cinnamic aldehyde/NaHCO3 formulation on rust and spores. The cultivars used included Moss unnamed (Moss), […], Rosette Delize (Hybrid Tea), Rosa Rugosa Rubra (Rugosa), Abel Morrison (Hybrid perpetual), John Laing, Betty Prior, and Rose de Roi. […] The Hybrid Tea and Hybrid perpetual were rated 3 and the Rugosa was rated 1. […] Control plants received no treatment. […] Moreover, the treatment appeared to have induced systemic resistance. […] Plants were an average of 0.86 m apart. […] Controls were untreated plants. […] Weekly reviews were made of the various plants. […] Six cultivars of infected rose in dedicated experimental rose gardens were used. Four Mrs. John Laing (Hybrid perpetual) and two Marchionese of Londonderry (Hybrid perpetual) rose plants were treated with one of two formulations of coniferyl aldehyde. […] The first two Mrs. […] Mrs. […] Both Marchionese of Londonderry plants (P5 and P6) were rated 5 for powdery mildew and rust after Paulus and Nelson (supra). Two treatment formulae were used for this trial. […] Control plants were sprayed with water alone. The change in the rating from pre-treatment to post-treatment was calculated as the mean percentage of disease control (MPDC) as described herein.
# [4] = test system: aphids; assay: aphids on sprayed roses; assay type: in vivo; details: plants P3 (T2) and P4 (T1), each with >35 insects before treatment
# [5] = test system: melon aphid (Aphis gossypii Glover); assay: melon aphid on chrysanthemum leaves, 5% HCA formulations; assay type: in vivo; details: 5% HCA (emulsion with 1% Tween 20 in water, or microencapsulated); 24 hours
# Experimental: For each test, treatment cartons received the active ingredient as a 5% aqueous emulsion or as microcapsules in either beeswax or carnauba wax. The negative control was a water only treatment. Sprays of each treatment were applied using a laboratory spray tower calibrated to spray the field equivalent of 113 liters per acre. The paper carton arenas were maintained at room temperature. Experimental cartons were examined at 24 hours post-treatment and % mortality determined (see FIG. 3). Every treatment regimen killed 100% of the melon aphids at 24 hours.
# [6] = test system: thrips insects (Frankliniella occidentalis); assay: residual activity on filter paper against thrips; assay type: in vivo; details: residue on filter paper, rehydrated 24 and 72 hours after spraying; thrips mortality after one hour
# Experimental: In the first experiment, two ml of two concentrations of CNMA (0.3 and 1%) were sprayed on filter paper (Whatman). As a negative control, two ml of water also were sprayed on filter paper. Twenty-four hours later, two ml of water were sprayed on treatment and control filter paper, which were then dried for 30 min. Approximately 30 thrips insects (Frankliniella occidentalis) were introduced and the number of F. occidentalis were observed after one hour. Mean mortality was calculated for each treatment.
# After 72 hours, the treatment filter papers were flipped over and only the negative control filter paper and the filter paper treated with 1% CNMA were sprayed with 2 ml of water and allowed to dry for 30 minutes. Approximately 30 thrips were introduced to the two treated filter papers and after one hour the number of dead F. occidentalis were observed and the mean mortality calculated for each treatment. A similar assay was conducted using a-hexyl cinnamaldehyde. Mean mortality was higher for rehydrated filter papers compared to non-rehydrated filter papers over time.
# [7] = 25° C; cited from earlier work
# [8] = T1 low dose: 5 g coniferyl aldehyde, 10 g Tween 80, 80 g NaHCO3 per 1000 g, plants P1, P4, P6
# [9] = T2 high dose: 100 g coniferyl aldehyde, 20 g Tween 80, 120 g NaHCO3 per 1000 g, plants P2, P3, P5
# [10] = baseline before T1 low dose, plants P1, P4, P6
# [11] = baseline before T2 high dose, plants P2, P3, P5
# [12] = 1000 ppm in 6% NaHCO3, 2% Tween 80, 7 days
compound,measurement,setting,value
COc1cc(/C=C/C=O)ccc1O [coniferyl aldehyde],"Powdery Mildew, Post (rating)",[1]; [8],2 (2=26-50) and 1 (1=1-25)
same,"Powdery Mildew, Change in rating",[1]; [9],3 and 4
same,"Powdery Mildew, Post (rating)",[1]; [9],2 (2=26-50) and 1 (1=1-25)
same,"Mean % Disease Control, rose powdery mildew","[1]; aldehyde 5 g (mixture 2.5 g + 2.5 g) with NaHCO3 (80 g), four days",44%
same,"Mean % Disease Control, rose powdery mildew","[1]; aldehyde 5 g (mixture 2.5 g + 2.5 g) with T80 (10 g), four days",44%
same,"Mean % Disease Control, rose powdery mildew","[1]; aldehyde 5 g (mixture 2.5 g + 2.5 g) with T80 + NaHCO3 (formulas G, M, Q), four days",81%
same,"Mean % Disease Control, rose powdery mildew","[1]; aldehyde 5 g (mixture 2.5 g + 2.5 g), no additive, rated four days after treatment",56%
same,"Powdery Mildew, Pre (rating)",[1]; [10],3 (3=51-75) and 4 (4=76-90)
same,"Powdery Mildew, Pre (rating)",[1]; [11],5 (5=>90% total leaves per bush)
same,eggs hatched incompletely (IH),[2]; [12],85%
same,nymphs that died in the shell (DIS),[2]; [12],12%
same,nymphs that died in the shell (DIS),"[2]; 5000 ppm aldehyde in 6% NaHCO3, 2% Tween 80, 7 days",10%
same,"Rust (rating), Change",[3]; [8],1 and 2
same,"Rust (rating), Change",[3]; [9],3 and 4
same,"Rust (rating), Post",[3]; [9],2 (2=26-50) and 1 (1=1-25)
same,"Rust (rating), Pre",[3]; [10],3 (3=51-75) and 4 (4=76-90)
same,"Rust (rating), Pre",[3]; [11],5 (5=>90% total leaves per bush)
same,aphids on treated rose plants,[4],eliminated
"CCCCCC/C(C=O)=C/c1ccccc1 [HCA, 2-hexyl-3-phenyl-2-propenal]",melon aphids killed,[5],100%
same,egg hatch failure / mortality at 560 ppm,"[2]; 560 ppm, egg tests with CNMA analogs",no hatch failure at 560 ppm; rapid
same,mortality at 100 ppm,"[2]; Daktulosphaira vitifoliae, read-out: rapid nymphal mortality",100%
same,residual activity,[6],have residual activity
same,vapor pressure,[7],70×10^−5 mm Hg
"CCN(CC)c1cccc(C)c1 [N,N-diethyl-m-toluamine, reference compound]",vapor pressure,[7],167×10^−5 mm Hg
